Experimental findings from ChEMBL document CHEMBL1139337, “Syntheses and biological activities of fluorescent-labeled analogs of acylpolyamine toxin NPTX-594 isolated from the venom of Madagascar Joro spider” (2009) are described below.

Molecules are shown by their SMILES.

In this experiment the test system is Gryllus bimaculatus. Nature of the experiment: Induction of paralysis in Gryllus bimaculatus assessed as drug level causing paralysis per gram of cricket after 5 mins. The experiment is classed as functional.
For `NCCCC[C@H](N)C(=O)NCCCNCCCNCCCCNC(=O)[C@H](CC(N)=O)NC(=O)Cc1cc(=O)oc2cc(O)ccc12`, the ED50 is on record as 1.05 nmol. For `NCCCC[C@H](N)C(=O)NCCCNCCCNCCCCNC(=O)[C@H](CC(N)=O)NC(=O)c1cc2ccc(O)cc2oc1=O` the value was 2.59 nmol. Next, `NCCCC[C@H](N)C(=O)NCCCNCCCNCCCCNC(=O)[C@H](CC(N)=O)NC(=O)Cc1ccc(O)cc1O`: 0.175 nmol; `NCCCCNCC(=O)NCCCNCCCNCCCCNC(=O)[C@H](CC(N)=O)NC(=O)Cc1cc(=O)oc2cc(O)ccc12`: 0.136 nmol; `NCCCCNCC(=O)NCCCNCCCNCCCCNC(=O)[C@H](CC(N)=O)NC(=O)c1cc2ccc(O)cc2oc1=O`: 5.69 nmol.
